This is an account of results in US20220023533A1, “SUBCUTANEOUS DELIVERY OF HIGH CONCENTRATION FORMULATIONS” (JAZZ PHRMACETICALS IRELAND LIMITED, priority 2018, published 2022).

The conditions of data set [1]: cited from earlier work; for pKa2: α-ammonium ion; for pKa1: α-carboxyl group; for pKa3: side chain group.
The nature of data set [2]: Viscosity of defibrotide formulations with various buffers and excipients. Format: physicochemical. On the procedure: (§1) It is important for pharmaceutical preparations for oral or parenteral administration to be of low-viscosity and/or isotonic. In order to identify buffers or excipients that may lower the viscosity and/or osmolality of defibrotide formulations, a wide-panel screening of various buffers and excipients (including GRAS excipients) was performed using a 200 mg/mL defibrotide formulation.

Data set [3] can be described thus: Osmolality of defibrotide formulations with various buffers and excipients. In kind it is physicochemical. On the procedure:
as §1

In the case of `O=C(O)[C@@H]1CCCN1` [Proline], in data set [1], the pI was 6.30, the pKa2 was 10.6 and the pKa1 is 1.99.

Turning to `N[C@@H](Cc1ccc(O)cc1)C(=O)O` [Tyrosine], in data set [1], the pI is reported as 5.66.

On to `NCCCC[C@H](N)C(=O)O` [Lysine], for which, in data set [1], the pI is reported as 9.74, the pKa3 is on record as 10.53, the pKa2 is 8.95 and the pKa1 was 2.18.

As to Defibrotide, the “Effect of increasing the defibrotide concentration in the formulation on viscosity” value in data set [2] is “increase”. For the same molecule, the “Effect of increasing the defibrotide concentration in the formulation on osmolality” value in data set [3] is recorded as “increase”.

As to `CC(C)[C@H](N)C(=O)O` [Valine], in data set [1], the pI is 5.96, the pKa2 is listed as 9.62 and the pKa1 is reported as 2.32.

With `C[C@@H](O)[C@H](N)C(=O)O` [Threonine], in data set [1], the pI was 5.60, the pKa2 was 9.10 and the pKa1 is listed as 2.09.

For `N[C@@H](Cc1c[nH]c2ccccc12)C(=O)O` [Tryptophan], in data set [1], the pKa2 was 9.39 and the pKa1 is 2.83.

As to `N=C(N)NCCC[C@H](N)C(=O)O` [Arginine], in data set [1], the pI is given as 10.76, the pKa3 is listed as 12.48, the pKa2 was 9.04 and the pKa1 is on record as 2.17.

Take `N[C@@H](Cc1ccccc1)C(=O)O` [Phenylalanine]: in data set [1], the pI is recorded as 5.48, the pKa2 is given as 9.13 and the pKa1 is recorded as 1.83.

On to `CSCC[C@H](N)C(=O)O` [Methionine], for which, in data set [1], the pI is listed as 5.74, the pKa2 is 9.21 and the pKa1 is given as 2.28.

Consider `C[C@H](N)C(=O)O` [Alanine], for which, in data set [1], the pI is on record as 6.00, the pKa2 is 9.69 and the pKa1 is recorded as 2.34.

As for `O=S(=O)(O)CCN1CCN(CCO)CC1` [HEPES buffer], in data set [1] (buffer or excipient), the pKa value is given as 7.564.

For `N[C@@H](CS)C(=O)O` [Cysteine], in data set [1], the pI is recorded as 5.07, the pKa2 is reported as 8.18 and the pKa1 was 1.96.

`NC(=O)C[C@H](N)C(=O)O` [Asparagine]: in data set [1], the pI was 5.41, the pKa2 is on record as 8.80 and the pKa1 is on record as 2.02.

Turning to `CC[C@H](C)[C@H](N)C(=O)O` [Isoleucine], in data set [1], the pI was 6.02, the pKa2 was 9.60 and the pKa1 is listed as 2.36.

On to `N[C@@H](CO)C(=O)O` [Serine], for which, in data set [1], the pI is listed as 5.68 and the pKa2 was 9.15.
